Test results as given in US20170008888A1 (KYORIN PHARMACEUTICAL CO., LTD., priority 2014, published 2017).
Where two headings read alike, the source gives them in different places.

Columns and labels:
human PBMCs = test: Cytokine response by primary human PBMCs stimulated with PMA/ionomycin or LPS; type: cell-based; settings: PBMC
Description: Freshly isolated human PBMCs were purchased from Astarte Biologics (Redmond, Wash.). Cells were seeded at 2e6 cells/ml in RPMI 1640 (Life Technologies, Grand Island, N.Y.) containing 10% (v/v) charcoal-dextran treated, heat inactivated FBS (Omega Scientific, Tarzana, Calif.), 0.05 mM 2-Mercaptoethanol (Sigma-Aldrich, St. Louis, Mo.), and 1×Pen/Strep Amphotericin B (Lonza, Allendale, N.J.). Cells were pre-treated with 0.1% DMSO or with test compounds for 1 h at 37° C. in a humidified atmosphere at 5% CO2. Compounds were tested at 10 μM down by ⅕ in a 4-point serial dilution series. Cells were then stimulated with either 50 ng/ml phorbol 12-myristate 13-acetate (PMA)(Sigma-Aldrich)+1 μg/ml ionomycin (Life Technologies) or with 100 ng/ml LPS from E. coli 0111:B4 (EMD Millipore, Billerica, Mass.) for 20 h at 37° C. in a humidified atmosphere at 5% CO2. Supernatant was collected and analyzed using the Bio-Plex Pro Human Cytokine 17-Plex Panel (Bio-Rad Laboratories, Hercules, Calif.) as per manufacturer's protocols. Magnetic beads were read on the Bio-Plex MAGPIX multiplex reader instrument using the accompanying xPONENT 4.2 acquisition software (Bio-Rad Laboratories). Data were analyzed via the Bio-Plex Manager software v6.1 (Bio-Rad Laboratories).

PCAF = target: T1, PCAF (Homo sapiens, UniProt Q92831); test: Bromodomain binding assay: PCAF
T1 construct: made in house; host or cells: E. coli host derived from the BL21 strain (T7 phage lysate)
Description: (§1) T7 phage strains displaying bromodomains were grown in parallel in 24-well blocks in an E. coli host derived from the BL21 strain. E. coli were grown to log-phase and infected with T7 phage from a frozen stock (multiplicity of infection=0.4) and incubated with shaking at 32° C. until lysis (90-150 minutes). The lysates were centrifuged (5,000×g) and filtered (0.2 μm) to remove cell debris. […] The liganded beads were blocked with excess biotin and washed with blocking buffer (SeaBlock (Pierce), 1% BSA, 0.05 Tween 20, 1 mM DTT) to remove unbound ligand and to reduce non-specific phage binding. […] Test compounds (T62 and 46) were prepared as 1000× stocks in 100% DMSO and subsequently diluted 1:10 in monoethylene glycol (MEG) to create stocks at 100× the screening concentration (resulting stock solution is 10% DMSO/90% MEG). The compounds were then diluted directly into the assays such that the final concentration of DMSO and MEG were 0.1% and 0.9%, respectively. All reactions were performed in polystyrene 96-well plates in a final volume of 0.135 ml. […] The bromodomain concentration in the eluates was measured by qPCR. Compounds were assayed for binding activity against a panel of 40 bromodomain-containing proteins.

PBRM1 = target: T2, PBRM1 (Homo sapiens, UniProt Q86U86); test: Bromodomain binding assay: PBRM1
T2 construct: read out by qPCR of the phage DNA
Description: as §1

TRIM24 = target: T3, TRIM24 (Homo sapiens, UniProt O15164); test: Bromodomain binding assay: TRIM24
T3 construct: made in house; host or cells: E. coli host derived from the BL21 strain (T7 phage lysate)
Description: as §1

[1] = 100 ng/ml LPS 20 h, read-out: EC50 (μM) under LPS stimulation, G-CSF
[2] = 100 ng/ml LPS 20 h, read-out: EC50 (μM) under LPS stimulation, GM-CSF
[3] = 100 ng/ml LPS 20 h, read-out: EC50 (μM) under LPS stimulation, IFNγ
[4] = 100 ng/ml LPS 20 h, read-out: EC50 (μM) under LPS stimulation, IL-1β
[5] = 100 ng/ml LPS 20 h, read-out: EC50 (μM) under LPS stimulation, IL-2
[6] = 100 ng/ml LPS 20 h, read-out: EC50 (μM) under LPS stimulation, IL-4
[7] = 100 ng/ml LPS 20 h, read-out: EC50 (μM) under LPS stimulation, IL-6
[8] = 100 ng/ml LPS 20 h, read-out: EC50 (μM) under LPS stimulation, IL-7
[9] = 100 ng/ml LPS 20 h, read-out: EC50 (μM) under LPS stimulation, IL-10
[10] = 100 ng/ml LPS 20 h, read-out: EC50 (μM) under LPS stimulation, IL-12
[11] = 100 ng/ml LPS 20 h, read-out: EC50 (μM) under LPS stimulation, IL-13
[12] = 100 ng/ml LPS 20 h, read-out: EC50 (μM) under LPS stimulation, IL-17A
[13] = 100 ng/ml LPS 20 h, read-out: EC50 (μM) under LPS stimulation, MCP-1
[14] = 100 ng/ml LPS 20 h, read-out: EC50 (μM) under LPS stimulation, TNFα
[15] = PMA/ionomycin 20 h, read-out: EC50 (μM) under PMA/ionomycin stimulation, GM-CSF
[16] = PMA/ionomycin 20 h, read-out: EC50 (μM) under PMA/ionomycin stimulation, IL-4
[17] = PMA/ionomycin 20 h, read-out: EC50 (μM) under PMA/ionomycin stimulation, IL-5
[18] = PMA/ionomycin 20 h, read-out: EC50 (μM) under PMA/ionomycin stimulation, IL-6
[19] = PMA/ionomycin 20 h, read-out: EC50 (μM) under PMA/ionomycin stimulation, IL-7
[20] = PMA/ionomycin 20 h, read-out: EC50 (μM) under PMA/ionomycin stimulation, IL-10
[21] = PMA/ionomycin 20 h, read-out: EC50 (μM) under PMA/ionomycin stimulation, IL-12
[22] = PMA/ionomycin 20 h, read-out: EC50 (μM) under PMA/ionomycin stimulation, IL-13
[23] = PMA/ionomycin 20 h, read-out: EC50 (μM) under PMA/ionomycin stimulation, IL-17A
[24] = PMA/ionomycin 20 h, read-out: EC50 (μM) under PMA/ionomycin stimulation, MCP-1
[25] = PMA/ionomycin 20 h, read-out: EC50 (μM) under PMA/ionomycin stimulation, MIP-1β
[26] = PMA/ionomycin 20 h, read-out: EC50 (μM) under PMA/ionomycin stimulation, TNFα

T1 sequence (Q92831 723-827 limits assumed): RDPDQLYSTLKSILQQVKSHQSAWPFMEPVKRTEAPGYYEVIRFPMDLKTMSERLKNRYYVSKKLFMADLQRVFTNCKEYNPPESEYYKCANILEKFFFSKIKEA
T3 sequence (O15164 899-1004 limits assumed): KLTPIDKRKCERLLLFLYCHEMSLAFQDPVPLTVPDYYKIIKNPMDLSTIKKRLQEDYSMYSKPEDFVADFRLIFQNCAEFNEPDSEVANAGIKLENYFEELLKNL
T2 sequence (Q86U86 whole entry): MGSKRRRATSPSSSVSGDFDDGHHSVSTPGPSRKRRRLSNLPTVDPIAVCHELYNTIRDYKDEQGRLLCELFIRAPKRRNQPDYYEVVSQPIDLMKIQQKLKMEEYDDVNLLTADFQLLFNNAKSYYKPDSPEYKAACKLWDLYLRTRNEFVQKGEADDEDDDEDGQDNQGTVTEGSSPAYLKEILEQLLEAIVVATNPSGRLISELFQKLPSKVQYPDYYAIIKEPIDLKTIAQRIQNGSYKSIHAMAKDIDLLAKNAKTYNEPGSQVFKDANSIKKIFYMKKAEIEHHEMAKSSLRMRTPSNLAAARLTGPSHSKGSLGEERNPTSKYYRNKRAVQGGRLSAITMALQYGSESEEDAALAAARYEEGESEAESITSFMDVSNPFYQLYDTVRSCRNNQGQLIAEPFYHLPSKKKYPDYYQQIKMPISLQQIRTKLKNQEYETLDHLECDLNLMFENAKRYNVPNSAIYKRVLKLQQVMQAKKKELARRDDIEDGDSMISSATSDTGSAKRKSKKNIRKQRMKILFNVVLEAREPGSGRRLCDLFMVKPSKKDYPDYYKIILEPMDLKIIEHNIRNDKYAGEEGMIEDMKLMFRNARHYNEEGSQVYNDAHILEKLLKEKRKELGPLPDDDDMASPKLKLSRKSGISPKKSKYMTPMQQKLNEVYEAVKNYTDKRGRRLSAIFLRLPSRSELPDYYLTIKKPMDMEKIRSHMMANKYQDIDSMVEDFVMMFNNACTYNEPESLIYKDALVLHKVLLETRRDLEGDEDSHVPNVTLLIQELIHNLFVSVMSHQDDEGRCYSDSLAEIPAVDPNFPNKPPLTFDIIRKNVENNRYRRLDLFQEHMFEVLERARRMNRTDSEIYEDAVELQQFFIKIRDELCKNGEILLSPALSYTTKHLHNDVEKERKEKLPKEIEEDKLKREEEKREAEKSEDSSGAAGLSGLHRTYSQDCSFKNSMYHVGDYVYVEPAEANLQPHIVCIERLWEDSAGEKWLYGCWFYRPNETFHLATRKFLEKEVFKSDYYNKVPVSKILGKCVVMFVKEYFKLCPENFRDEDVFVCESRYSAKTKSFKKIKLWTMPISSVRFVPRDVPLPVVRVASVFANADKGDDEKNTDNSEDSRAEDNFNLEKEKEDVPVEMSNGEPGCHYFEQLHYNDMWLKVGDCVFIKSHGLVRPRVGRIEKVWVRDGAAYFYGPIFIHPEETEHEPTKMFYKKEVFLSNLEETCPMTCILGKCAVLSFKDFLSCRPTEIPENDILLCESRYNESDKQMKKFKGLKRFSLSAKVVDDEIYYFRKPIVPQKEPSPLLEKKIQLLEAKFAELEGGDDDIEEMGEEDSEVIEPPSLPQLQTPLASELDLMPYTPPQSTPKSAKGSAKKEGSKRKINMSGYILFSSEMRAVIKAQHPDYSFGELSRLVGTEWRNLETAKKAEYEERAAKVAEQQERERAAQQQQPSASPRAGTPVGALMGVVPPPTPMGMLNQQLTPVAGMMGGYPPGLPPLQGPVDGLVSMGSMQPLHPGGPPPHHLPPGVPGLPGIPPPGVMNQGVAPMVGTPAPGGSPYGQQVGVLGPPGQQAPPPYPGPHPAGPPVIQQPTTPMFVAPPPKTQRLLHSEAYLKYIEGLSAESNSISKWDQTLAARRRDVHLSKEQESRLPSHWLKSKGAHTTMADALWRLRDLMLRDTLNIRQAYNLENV

Row | SMILES | EC50 (human PBMCs; [1]) [µM] | EC50 (human PBMCs; [2]) [µM] | EC50 (human PBMCs; [3]) [µM] | EC50 (human PBMCs; [4]) [µM] | EC50 (human PBMCs; [5]) [µM] | EC50 (human PBMCs; [6]) [µM] | EC50 (human PBMCs; [7]) [µM] | EC50 (human PBMCs; [8]) [µM] | EC50 (human PBMCs; [9]) [µM] | EC50 (human PBMCs; [10]) [µM] | EC50 (human PBMCs; [11]) [µM] | EC50 (human PBMCs; [12]) [µM] | EC50 (human PBMCs; [13]) [µM] | EC50 (human PBMCs; [14]) [µM] | EC50 (human PBMCs; [15]) [µM] | EC50 (human PBMCs; [16]) [µM] | EC50 (human PBMCs; [17]) [µM] | EC50 (human PBMCs; [18]) [µM] | EC50 (human PBMCs; [19]) [µM] | EC50 (human PBMCs; [20]) [µM] | further results
1 | CCOc1cc(C(=O)N2CCCN(C)CC2)ccc1Nc1cc2c(cn1)N(C)C(=O)c1ccccc1N2C [Compound 8] | 4.95 | 4.04 | 1.67 | 3.92 | 7.93 | 10.9 | 4.49 | 9.89 | 1.09 | 1.95 | 6.9 | > 10 | 0.237 | 0.304 | 4.67 | > 10 | 3.88 | 2.35 | > 10 | 0.627 | EC50 (human PBMCs; [21]): > 10 µM; EC50 (human PBMCs; [22]): 4.22 µM; EC50 (human PBMCs; [23]): > 10 µM; EC50 (human PBMCs; [24]): 0.401 µM; EC50 (human PBMCs; [25]): 4.28 µM; EC50 (human PBMCs; [26]): 8.17 µM
2 | CCOc1cc(C(=O)N2CCC(N3CCCC3)CC2)ccc1Nc1cc2c(cn1)N(C)C(=O)c1ccccc1N2C [Compound 46, 3-(2-Ethoxy-4-(4-(pyrrolidin-1-yl)piperidine-1-carbonyl)phenylamino)-5,11-dimethyl-5H-benzo[e]pyrido[3,4-b][1,4]diazepin-10(11H)-one] | 2.52 | 2.14 | 0.63 | 1.65 | 3.12 | 5.15 | 2.07 | 4.21 | 0.467 | 0.713 | 3.12 | > 10 | 0.104 | 0.124 | 3.27 | > 10 | 3.16 | 0.9 | > 10 | 0.181 | Kd (PCAF): > 20 µM; Kd (PBRM1): > 20 µM; EC50 (human PBMCs; [21]): > 10 µM; EC50 (human PBMCs; [22]): 4.77 µM; EC50 (human PBMCs; [23]): > 10 µM; EC50 (human PBMCs; [24]): 0.143 µM; EC50 (human PBMCs; [25]): 8.07 µM; EC50 (human PBMCs; [26]): 4.14 µM; Kd (TRIM24): > 20 µM
3 | CCOc1cc(C(=O)N[C@H]2CC[C@H](O)CC2)ccc1Nc1cc2c(cn1)N(C)C(=O)c1ccccc1N2C [Compound T62] | – | – | – | – | – | – | – | – | – | – | – | – | – | – | – | – | – | – | – | – | Kd (PCAF): > 20 µM; Kd (PBRM1): > 20 µM; Kd (TRIM24): > 20 µM
